This assay addresses T1, Uracil reductase (dihydropyrimidine dehydrogenase, EC 1.3.1.2) (Bos taurus, UniProt Q28007).
T1 construct: purified from bovine liver; from tissue; host or cells: bovine liver
T1 sequence (Q28007 1-1025): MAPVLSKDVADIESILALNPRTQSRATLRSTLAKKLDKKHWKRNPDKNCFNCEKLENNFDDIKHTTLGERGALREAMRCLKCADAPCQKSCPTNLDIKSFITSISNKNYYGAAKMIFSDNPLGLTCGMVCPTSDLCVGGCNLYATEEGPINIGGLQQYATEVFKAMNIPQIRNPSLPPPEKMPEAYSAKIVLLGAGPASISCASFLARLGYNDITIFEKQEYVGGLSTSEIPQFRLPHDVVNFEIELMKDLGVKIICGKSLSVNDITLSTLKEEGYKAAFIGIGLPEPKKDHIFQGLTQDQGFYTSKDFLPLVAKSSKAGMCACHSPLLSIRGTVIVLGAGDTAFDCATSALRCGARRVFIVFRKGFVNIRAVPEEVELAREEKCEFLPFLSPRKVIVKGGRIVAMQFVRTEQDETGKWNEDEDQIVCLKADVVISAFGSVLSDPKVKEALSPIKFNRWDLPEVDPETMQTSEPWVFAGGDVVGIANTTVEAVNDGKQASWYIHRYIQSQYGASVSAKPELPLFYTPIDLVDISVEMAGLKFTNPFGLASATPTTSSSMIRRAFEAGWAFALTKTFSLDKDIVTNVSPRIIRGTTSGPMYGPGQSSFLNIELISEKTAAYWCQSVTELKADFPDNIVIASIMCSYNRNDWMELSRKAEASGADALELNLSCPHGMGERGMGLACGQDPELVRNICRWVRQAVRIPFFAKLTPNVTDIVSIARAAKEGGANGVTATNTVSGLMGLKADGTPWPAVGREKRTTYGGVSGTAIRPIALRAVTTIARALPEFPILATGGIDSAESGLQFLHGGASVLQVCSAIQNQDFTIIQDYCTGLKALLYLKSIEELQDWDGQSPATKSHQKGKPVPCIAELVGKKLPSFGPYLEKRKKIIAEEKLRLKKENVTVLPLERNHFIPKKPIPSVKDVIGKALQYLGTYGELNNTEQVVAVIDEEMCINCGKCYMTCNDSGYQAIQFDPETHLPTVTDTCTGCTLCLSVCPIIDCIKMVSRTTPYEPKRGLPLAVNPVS
Put plainly: Determination of uracil reductase inactivation. It counts as biochemical, bovine. The method, then:
Uracil reductase (1 micromolar) (dihydropyrimidine dehydrogenase, EC 1.3.1.2) purified from bovine liver was incubated with 100 micromolar inactivator and 5 mM dithiothreitol (enzyme reductant) at 37° for 30 minutes in 0.05 M Tris-HCl at pH 8.0. The enzyme and inactivator were diluted 100-fold into the assay buffer, which contained 200 micromolar NADPH, 200 micromolar thymine and 1 mM dithiothreitol in Tris-HCl at pH 8.0. The velocity of the enzyme was determined spectrophotometrically. These velocities have been corrected for NADPH oxidase activity, which was less than […] of the rate of thymine-dependent oxidation of NADPH. The % inactivation of the enzyme was equal to 100% minus the percent of enzymatic activity remaining. Enzyme incubated without inhibitor was stable under these conditions. Parenthetical values are the relative first-order rate constants for inactivation of enzyme determined from similar experiments where the fractional activity was measured as a function of the time of incubation of 50 micromol inactivator with enzyme.

`C#Cc1c[nH]c(=O)[nH]c1=O` [5-ethynyluracil]: the “relative first-order rate constants for inactivation of enzyme (parenthetical values)” value (50 micromol inactivator, fractional activity vs time of incubation) is “(100)”. Besides, the inhibition at 100 µM (0.5 h, 100 micromolar inactivator, 1 micromolar enzyme, 5 mM dithiothreitol, 37° for 30 minutes, pH 8.0, read-out: % Inactivation) came out at 100%.

The values above are taken from US7704971B2, “Uracil reductase inactivators” (SmithKlineBeecham Corporation, priority 1990, dated 2010).
